Results on four molecules are retold here after patent publication US5356926A, “3-alkyloxy-, aryloxy-, or arylalkyloxy-benzo [β]thiophene-2-carboxamides as inhibitors of cell adhesion” (Warner-Lambert Company, priority 1993, dated 1994).

Where two headings read alike, the source gives them in different places.

One test concerns Cyclooxygenase. Description: ARBC: cyclooxygenase (PGF2α) in RBL-1 cells. To be noted: Table 4, class symbol. The class given is cell-based, rat. How it is done: (§1) The testing methods used are described as follows:
(§2) The rat basophilic leukemia cell line (RBL-1) was obtained from the American Type Culture Collection (Rockville, Md.).
(§3) Radioimmunoassay (RIA) kits of LTB4 and PGF2α were obtained from Arnersham (Arlington Heights, IL) and Seragen (Boston, Mass.), respectively.
(§4) All tissue culture media were obtained from GIBCO (Grand Island, N.Y.).
(§5) RBL-1 cells are grown in suspension culture in Eagle's minimum essential medium supplemented with 12% fetal bovine serum at 37° C. in an incubator supplied with air-5% carbon dioxide. Cells are harvested by centrifugation. They are washed with cold phosphate-buffered saline, pH 7.4 (PBS; NaCl, 7.1 g; Na2 HPO4, 1.15 g; KH2 PO4, 0.2 g; and KCl, 0.2 g/L). Cells are finally suspended in PBS containing 1.0 mM calcium at a density of 2×10^6 cells/mL. Cells are incubated with and without test agent (in DMSO) (1% DMSO is without effect on arachidonic acid metabolism) for 10 minutes at room temperature. Calcium ionophore A23187 (5 μM) is added and cells are incubated for 7 minutes at 37° C. The reaction is stopped by chilling the tubes on ice for 10 minutes. Cells are separated by centrifugation and the supernatant is stored at -20° C. Aliquots (100 μL) are analyzed for LTB4 and PGF2α using radioimmunoassay kits as provided by the supplier.

Test [1] relates to human neutrophil adhesion to TNFα, IL-1α, and LPS-stimulated human umbilical vein endothelial cells. Description: Inhibition of human neutrophil adhesion to stimulated HUVEC (51Cr-labeled neutrophils). Format: cell-based. The source says: METHOD FOR DETERMINING THE INHIBITION OF HUMAN NEUTROPHIL ADHESION TO TNFα, IL-1α, AND LPS-STIMULATED HUMAN UMBILICAL VEIN ENDOTHELIAL CELLS BY 3-ALKYLOXY-, ARYLOXY-, OR ARYLALKYLOXY BENZO[b]THIOPHENE-2-CARBOXAMIDES
Neutrophils were isolated from anticoagulant-treated venous blood obtained from healthy human volunteers according to the method of Ferrante and Thong (J. Immunol. Methods 1978;24:389-93).
Second passage human umbilical vein endothelial cells (HUVEC) (Clonetics, San Diego, Calif.) were seeded into Falcon 24-well cell culture plates (Becton Dickinson, Lincoln Park, N.J.) at approximately 2×10^4 cells per well. The cells were grown to confluent monolayers in endothelial basal medium (EBM, Clonetics) supplemented with 5% fetal calf serum (Hyclone Laboratories, Logan, Utah), 10 ng/mL EGF, 1 μg/mL hydrocortisone, 0.4% bovine brain extract (Clonetics) in 5% CO2 at 37° C.
Neutrophils (30×10^6) were labeled for 60 minutes at 37° C. with 100 μCi Na^51 CrO4 (ICN Biomedicals, Costa Mesa, Calif.) in 2.0 mL Ca^2+ - and Mg^2+ -free Hanks' balanced salt solution (HBSS, GIBCO Laboratories, Grand Island, N.Y.). The cells were washed two times in HBSS and suspended in unsupplemented EBM.
Stimulation of HUVEC with tumor necrosis factor-α (TNFα) (Genzyme, Cambridge, Mass.) , interleukin (IL-1α) (Genzyrne) or E. coli 0111:B4 lipopolysaccharide (LPS) (Sigma) in the presence or absence of drug was initiated 4 hours prior to the addition of neutrophils. The suspension medium was unsupplemented EBM or supplemented EBM for studies with cytokines or LPS, respectively. […] Immediately prior to addition of ^51 Cr-labeled neutrophils to the HUVEC monolayers, the cultures were washed with 1 mL unsupplemented media to remove stimulus and/or drug. Neutrophils (5×10^5) were then added to the HUVEC in 0.5 mL unsupplemented media and incubated at 37° C. for 30 minutes. Nonadherent neutrophils were removed by aspiration. Following an additional wash, adherent neutrophils were lysed with 0.5 mL 1N NH4 OH overnight at 37° C. Lysates were collected and the radioactivity in each well was determined by gamma ray spectroscopy.

In test [2] the target is T1, 5-Lipoxygenase (Rattus norvegicus, UniProt P12527).
T1 sequence (P12527 1-673): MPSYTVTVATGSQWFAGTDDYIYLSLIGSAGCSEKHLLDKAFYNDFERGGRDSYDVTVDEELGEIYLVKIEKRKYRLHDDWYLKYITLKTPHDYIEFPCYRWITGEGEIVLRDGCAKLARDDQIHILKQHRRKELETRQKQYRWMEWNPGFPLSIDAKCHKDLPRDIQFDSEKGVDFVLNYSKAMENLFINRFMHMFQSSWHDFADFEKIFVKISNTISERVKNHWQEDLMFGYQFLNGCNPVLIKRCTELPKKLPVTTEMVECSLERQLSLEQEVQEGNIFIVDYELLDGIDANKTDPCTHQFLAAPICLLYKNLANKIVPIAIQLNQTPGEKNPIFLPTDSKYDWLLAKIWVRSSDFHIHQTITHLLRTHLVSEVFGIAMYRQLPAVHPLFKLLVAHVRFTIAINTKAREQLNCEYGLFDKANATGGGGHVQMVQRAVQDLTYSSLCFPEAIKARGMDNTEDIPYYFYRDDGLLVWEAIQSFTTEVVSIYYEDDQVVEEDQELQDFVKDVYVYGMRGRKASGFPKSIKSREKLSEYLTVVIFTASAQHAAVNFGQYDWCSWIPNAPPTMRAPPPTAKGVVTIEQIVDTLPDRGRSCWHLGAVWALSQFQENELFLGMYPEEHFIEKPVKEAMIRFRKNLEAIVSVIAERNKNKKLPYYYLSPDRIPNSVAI
The test can be described thus: 5-lipoxygenase inhibition assay (20,000 xg supernatant of RBL cells). Format: biochemical. On the set-up: activity contained in the 20,000 xg supernatant from cultured rat basophilic leukemia (RBL) cells; endogenous in cells; host or cells: RBL (rat basophilic leukemia) cells, 20,000 xg supernatant. How it is done:
PROTOCOL FOR 5-LIPOXYGENASE INHIBITION ASSAY
Incubations contained 5% (v/v) RBL 20,000 xg supernatant in assay buffer (10 mM BES, 10 mM PIPES, 1 mM EDTA, 0.75 mM CaC12, 1 mMATP, 100 mMNaCl, pH 6.8). DMSO vehicle (2% v/v) with and without inhibitors is preincubated with the enzyme for 20 minutes at 37° C. before initiating the 5-lipoxygenase catalyzed reaction by adding […] [^14 C]arachidonic acid (55.8 mCi/mmol, New England Nuclear, Boston, Mass.) dissolved in 5 μL 0,028% (v/v) aqueous NH4 OH. After 20 minutes of additional incubation at 37° C., reactions are terminated by the addition of three volumes of methanol containing 100 μg triphenylphosphine. Samples are then analyzed by HPLC with radiometric detection for 5-1ipoxygenase reaction products.
All treatments are evaluated in duplicate and percent inhibition is computed by comparing the products formed in treatment incubations to the mean product formation in the vehicle control group.

Test [3] concerns the target T1, 5-Lipoxygenase. Description: ARBL: 5-lipoxygenase (LTB4) in RBL-1 cells. Format: cell-based. On the set-up: endogenous in cells; host or cells: RBL-1 (rat basophilic leukemia). The following applies: Table 4; for inhibition at 10 µM: RBL-1, class symbol. How it is done: as §1, §2, §3, §4, §5
For test [4], the system named is mycobacterium footpad edema. Description: Inhibition of mycobacterium footpad edema (MFE). Format: in vivo, rat. To be noted: rats. How it is done:
METHOD FOR DETERMINING THE INHIBITION OF MYCOBACTERIUM FOOTPAD EDEMA BY […]HOXY-3-([…]HYLETHOXY) BENZO[b]THIOPHENE-2-CARBOXAMIDE-1-OXIDE Mycobacterium butyricum (5 mg/mL) was prepared by sonication in paraffin oil for 10 minutes in an ice bath. Footpad edema was induced on Day 0 by injecting 0.1 mL of the Mycobacterium mixture into the left hindpaw of lightly anesthetized rats. Swelling in the injected hindpaw was determined by mercury plethysmography on Days 1, 2, and 3. Groups of rats were treated with test compounds (suspended in 0.5% hydroxypropyl methylcellulose with 0.2% Tween 80 or vehicle 1 hour before Mycobacterium injection and on Days 1 and 2. Inhibition of swelling is determined by comparing the change in hindpaw volume in compound- and vehicle-treated rats.

[5] abbreviates: Table 4, class symbol, read-out: 5-LO % Inhibition at 30 μM.

Turning to `CC(C)Oc1c(C(N)=O)sc2ccccc12` [Example 2, 3-(1-methylethoxy)benzo[b]thiophene-2-carboxamide], in the test with Cyclooxygenase, the “ARBC % Inhibition at 10 μM” value was “N (Less than 40% inhibition at 10 μM)”. Also, 100 µM produced 60% inhibition in test [1] (Table 1, at 100 μM). Further, at 5-Lipoxygenase [2] (setting [5]), the inhibition (commonly the percentage by which the read-out fell short of the control) at 30 µM was below 4%. The molecule further returned an inhibition at 10 µM against 5-Lipoxygenase [3] below 40%.

As for `COc1ccc2sc(C(N)=O)c(Oc3ccccc3)c2c1` [Example 9, 5-Methoxy-3-(phenoxy)benzo[b]thiophene-2-carboxamide], in the test with Cyclooxygenase, the “ARBC % Inhibition at 10 μM” value is “N (Less than 40% inhibition at 10 μM)”. Also, at 100 µM the inhibition in test [1] (Table 1, at 100 μM) was 59%. At 5-Lipoxygenase [2] (setting [5]), the inhibition at 30 µM was below 4%. In addition, the inhibition at 10 µM on 5-Lipoxygenase [3] was below 40%.

For the molecule `COc1ccc2sc(C(=O)Nc3ccc(C(=O)O)cc3)c(OC(C)C)c2c1` [Example 12, 4-[[[5-Methoxy-3-(1-methylethoxy)benzo[b]thien-2-yl]carbonyl]amino]benzoic acid], the IC50 (commonly the midpoint of a concentration-inhibition curve) in test [1] (Table 2, footnote b) came to 50 µM; on 5-Lipoxygenase [3] (ARBL/ARBC IC50 (μM) or % inhibition at 10 μM, RBL-1 cells, A23187), 36 µM. The inhibition at 30 µM on 5-Lipoxygenase [2] (Table 4, read-out: 5-LO % Inhibition at 30 μM) worked out at 16%.

As for `COc1ccc2c(c1)c(OC(C)C)c(C(N)=O)[s+]2[O-]` (centres unmarked) [Example 28, 5-Methoxy-3-(1-methylethoxy)benzo[b]thiophene-2-carboxamide-1-oxide], the inhibition at 100 µM in test [1] (Table 3, at 100 μM) turned out to be 83%. Further, the ED40 in test [4] (Mycobacterium, dosed 1 hour before injection and on Days 1 and 2, read-out: ID40 in mycobacterium footpad edema (MFE)) came to 10.9 mg/kg. Further, the “activity in mycobacterium footpad edema (in words)” value in test [4] was “active”.
